From patent publication US20220025058A1, “METHODS AND PHARMACEUTICAL COMPOSITIONS FOR THE TREATMENT OF ACUTE MYELOID LEUKEMIA BY ERADICATING LEUKEMIC STEM CELLS” (INSERM (INSTITUT NATIONAL DE LA SANTÉ ET DE LA RECHERCHE …, priority 2018, published 2022)

System: MOLM-14 cells
Assay: EC50 experiments (MTS cell viability) on MOLM-14 cells sorted from xenografted mice
Assay type: cell-based
Conditions: Homo sapiens, MOLM-14, 168 h, after one week of in vitro culture
Experimental: The day before experiment, cells were adjusted to 3×10^5 cells/ml final concentration and plated in a 96-well plate (final volume: 100 μl). To measure half-maximal inhibitory concentration (EC50), increased concentrations of AraC or idarubicin were added to the medium. After two days, 20 μl per well of MTS solution (Promega) was added for two hours and then absorbance was recorded at 490 nm with a 96-well plate reader. The doses that decrease cell viability to 50% (EC50) were analyzed Nonlinear regression log [inhibitor] vs. normalized response-variable slope with GraphPad Prism software.
After 10 days, shRNA expression was activated and the mice were treated with 30 mg/kg/day cytarabine for 5 days (FIG. 2A). […] Also MOLM-14 expressing shCTR and treated by vehicle or AraC were sorted by flow cytometry, and plated in vitro for further experiments. […] To evaluate the role of CALCRL in this chemoresistance acquired in vivo, we undertook to deplete CALCRL in these cells.

[1] = MOLM-14 shCTR cells from AraC treated group mice
[2] = MOLM-14 shCTR cells from vehicle group mice

EC50 [1] [µM] | EC50 [2] [µM] | Compound
6.71 | 2.24 | Nc1ccn([C@@H]2O[C@H](CO)[C@@H](O)[C@@H]2O)c(=O)n1 [AraC, cytarabine]
0.0605 | 0.0286 | CC(=O)[C@]1(O)Cc2c(O)c3c(c(O)c2[C@@H](O[C@H]2C[C@H](N)[C@H](O)[C@H](C)O2)C1)C(=O)c1ccccc1C3=O [idarubicin]
